Data set [1] is described as follows: Unbound clearance in rhesus monkey at 2 mg/kg, iv measured upto 24 hrs by LC-MS/MS method. The class given is ADME, organism-based, Macaca mulatta. The following applies: in vivo.
Data set [2] can be described thus: Mean residence time in rat at 10 mg/kg, po or 2 mg/kg, iv measured upto 24 hrs by LC-MS/MS method. The class given is ADME, organism-based. The following applies: in vivo.
The nature of data set [3]: Clearance in rhesus monkey at 2 mg/kg, iv measured upto 24 hrs by LC-MS/MS method. The class given is ADME, organism-based, Macaca mulatta. As to conditions: in vivo.
Data set [4] in a line: Oral bioavailability in dog at 3 mg/kg measured upto 24 hrs by LC-MS/MS method. The class given is ADME, organism-based, Canis lupus familiaris. As to conditions: in vivo.
Data set [5] can be described thus: Unbound brain-to-plasma concentration ratio in non human primates. The class given is ADME, cell-free. As to conditions: read-out: K(p,uu,brain).
Data set [6] in a line: Unbound clearance in rat at 10 mg/kg, po or 2 mg/kg, iv measured upto 24 hrs by LC-MS/MS method. The class given is ADME, organism-based. As to conditions: in vivo.
Data set [7] can be described thus: Unbound brain-to-plasma concentration ratio in rat. As to conditions: read-out: K(p,uu,brain). The class given is ADME, cell-free.
Data set [8] is described as follows: Mean residence time in dog at 3 mg/kg, po or 0.5 mg/kg, iv measured upto 24 hrs by LC-MS/MS method. The class given is ADME, organism-based, Canis lupus familiaris. The following applies: in vivo.
Data set [9] in a line: Unbound clearance in dog at 3 mg/kg, po or 0.5 mg/kg, iv measured upto 24 hrs by LC-MS/MS method. The class given is ADME, organism-based, Canis lupus familiaris. As to conditions: in vivo.
The nature of data set [10]: Mean residence time in rhesus monkey at 2 mg/kg, iv measured upto 24 hrs by LC-MS/MS method. The class given is ADME, organism-based, Macaca mulatta. The following applies: in vivo.
Data set [11] can be described thus: Oral bioavailability in rat at 10 mg/kg measured upto 24 hrs by LC-MS/MS method. The following applies: in vivo. The class given is ADME, organism-based.
Data set [12] in a line: Unbound clearance in rat at 0.1 mg/kg, iv administered as cassette dose measured upto 24 hrs by LC-MS/MS method. The class given is ADME, organism-based. As to conditions: in vivo.
A short description of data set [13]: Mean residence time in rat at 0.1 mg/kg, iv administered as cassette dose measured upto 24 hrs by LC-MS/MS method. The class given is ADME, organism-based. The following applies: in vivo.
Data set [14] in a line: Clearance in rat at 0.1 mg/kg, iv administered as cassette dose measured upto 24 hrs by LC-MS/MS method. The class given is ADME, organism-based. The following applies: in vivo.

These results are taken from ChEMBL document CHEMBL5236618, “Discovery and Optimization of Potent, Selective, and Brain-Penetrant 1-Heteroaryl-1H-Indazole LRRK2 Kinase Inhibitors for the Treatment of Parkinson's Disease” (J Med Chem, 2022).

By MRT is commonly meant the average time that molecules of a dose stay in the body. As a reminder, the clearance is a measure of how efficiently the substance is removed, as volume per time. As a reminder, the bioavailability is dose-corrected exposure relative to a reference, in per cent.

For `C[C@@H]1CN(c2cc(-c3n[nH]c4ccc(OC5(C)CC5)cc34)ncn2)C[C@H](C)O1` [MLi-2], the CL free was 3400 mL/min/kg in data set [1], 12700 mL/min/kg in [6] and 3200 mL/min/kg in data set [9]. Besides, the MRT in data set [2] was found to be 2 h; in data set [8] it was 7 h; in data set [10] it was 1.5 h. The same compound yielded a clearance in data set [3] of 16 mL/min/kg. For the same compound, the bioavailability in data set [4] was 100%; in data set [11], 38%. Besides, the Kp uu in data set [5] amounted to 0.4; in data set [7] it was 0.5.

`C[C@@H]1CN(c2cc(-c3ncc4ccc(-c5cnn(C)c5)cn34)ccn2)C[C@H](C)O1` had a CL free in data set [12] of 5850 mL/min/kg. For the same compound, the MRT in data set [13] is 0.5 h. Besides, the clearance in [14] amounted to 98 mL/min/kg.
